The results in this text go back to patent publication US20230041743A1, “1,8-NAPHTHYRIDIN-2-ONE COMPOUNDS FOR THE TREATMENT OF AUTOIMMUNE DISEASE” (Hoffmann-La Roche Inc., priority 2019, published 2023).

The assay addresses T1, human TLR8 (Homo sapiens, UniProt Q9NR97).
T1 construct: host or cells: HEK293 (HEK-Blue hTLR8)
T1 sequence (Q9NR97 27-1041): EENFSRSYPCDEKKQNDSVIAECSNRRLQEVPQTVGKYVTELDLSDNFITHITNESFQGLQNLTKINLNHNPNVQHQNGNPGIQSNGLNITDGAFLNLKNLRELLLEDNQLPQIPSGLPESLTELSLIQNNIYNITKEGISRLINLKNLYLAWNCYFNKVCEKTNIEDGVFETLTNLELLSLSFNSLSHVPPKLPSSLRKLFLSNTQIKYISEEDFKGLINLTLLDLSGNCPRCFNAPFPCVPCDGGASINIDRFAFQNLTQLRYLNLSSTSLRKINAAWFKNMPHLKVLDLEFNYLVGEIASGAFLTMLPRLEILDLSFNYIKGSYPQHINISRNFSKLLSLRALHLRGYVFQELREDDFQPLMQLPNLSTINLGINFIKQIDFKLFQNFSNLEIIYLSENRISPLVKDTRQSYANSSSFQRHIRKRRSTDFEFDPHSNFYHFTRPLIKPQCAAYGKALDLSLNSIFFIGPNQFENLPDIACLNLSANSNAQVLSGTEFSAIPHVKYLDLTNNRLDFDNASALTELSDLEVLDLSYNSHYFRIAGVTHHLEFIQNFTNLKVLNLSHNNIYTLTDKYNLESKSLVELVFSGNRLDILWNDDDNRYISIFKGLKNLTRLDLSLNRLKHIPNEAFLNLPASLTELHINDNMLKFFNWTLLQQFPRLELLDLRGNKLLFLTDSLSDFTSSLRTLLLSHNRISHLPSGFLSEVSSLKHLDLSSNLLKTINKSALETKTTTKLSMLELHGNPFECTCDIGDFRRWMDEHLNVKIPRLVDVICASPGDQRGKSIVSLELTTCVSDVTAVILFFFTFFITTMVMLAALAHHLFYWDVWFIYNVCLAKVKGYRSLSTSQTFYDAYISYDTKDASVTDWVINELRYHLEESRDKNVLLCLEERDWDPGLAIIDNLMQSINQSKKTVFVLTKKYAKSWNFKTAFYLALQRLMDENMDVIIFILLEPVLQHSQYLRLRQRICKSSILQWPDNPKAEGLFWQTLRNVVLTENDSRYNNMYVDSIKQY
Briefly: HEK293-Blue-hTLR-8 cells assay (SEAP reporter, R848 stimulation). In kind it is cell-based. Conditions: HEK293-Blue-hTLR8 cells, R848 ligand, 20 hrs incubation; read-out: HEK/hTLR8 IC50. From the text:
HEK293-Blue-hTLR-8 Cells Assay:
A stable HEK293-Blue-hTLR-8 cell line was purchased from InvivoGen (Cat. #: hkb-htlr8, San Diego, Calif., USA). These cells were originally designed for studying the stimulation of human TLR8 by monitoring the activation of NF-κB. A SEAP (secreted embryonic alkaline phosphatase) reporter gene was placed under the control of the IFN-β minimal promoter fused to five NF-κB and AP-1-binding sites. The SEAP was induced by activating NF-κB and AP-1 via stimulating HEK-Blue hTLR8 cells with TLR8 ligands. Therefore the reporter expression was declined by TLR8 antagonist under the stimulation of a ligand, such as R848, for incubation of 20 hrs. The cell culture supernatant SEAP reporter activity was determined using QUANTI-Blue™ kit (Cat. #: rep-qb1, Invivogen, San Diego, Ca, USA) at a wavelength of 640 nm, a detection medium that turns purple or blue in the presence of alkaline phosphatase.
HEK293-Blue-hTLR8 cells were incubated at a density of 250,000-450,000 cells/mL in a volume of 170 μL in a 96-well plate in Dulbecco's Modified Eagle's medium (DMEM) containing 4.5 g/L glucose, 50 U/mL penicillin, […], […], 2 mM L-glutamine, 10% (v/v) heat-inactivated fetal bovine serum with addition of 20 μL test compound in a serial dilution in the presence of final DMSO at 1% and 10 μL of 60 uM R848 in above DMEM, perform incubation under 37° C. in a CO2 incubator for 20 hrs. Then 20 μL of the supernatant from each well was incubated with 180 μL Quanti-blue substrate solution at 37° C. for 2 hrs and the absorbance was read at 620-655 nm using a spectrophotometer. The signaling pathway that TLR8 activation leads to downstream NF-κB activation has been widely accepted, and therefore similar reporter assay was modified for evaluating TLR8 antagonist.

pIC50: −log10 of the molar value.

Regarding `C[C@@H]1CN(c2cc(=O)n(C)c3ncccc23)C[C@@H]2c3ccc([C@@H]4C[C@H]5COC[C@@H](C4)N5)cc3CN12` [Example 28B, 4-[(4R,10bS)-4-methyl-8-(exo-3-oxa-9-azabicyclo[3.3.1]nonan-7-yl)-3,4,6,10b-tetrahydro-1H-pyrazino[2,1-a]isoindol-2-yl]-1-methyl-1,8-naphthyridin-2-one], the pIC50 was 8.36.

Turning to `CCn1c(=O)cc(N2C[C@@H](C)N3Cc4cc(N5C[C@@H](N)[C@H](OC)C5)ccc4[C@H]3C2)c2cccnc21` [Example 29, 4-[(4R,10bS)-8-[(3R,4R)-3-amino-4-methoxy-pyrrolidin-1-yl]-4-methyl-3,4,6,10b-tetrahydro-1H-pyrazino[2,1-a]isoindol-2-yl]-1-ethyl-1,8-naphthyridin-2-one], the pIC50 is 7.58.
